# Test results reported in patent US12617773B2, “Azetidin-3-ylmethanol derivatives as CCR6 receptor modulators” (Idorsia Pharmaceuticals Ltd, priority 2020, dated 2026).
# Target: T1, human CCR6 (Homo sapiens, UniProt P51684)
# T1 construct: expressed in transfected cells; host or cells: HEK-293
# T1 sequence (P51684 1-374): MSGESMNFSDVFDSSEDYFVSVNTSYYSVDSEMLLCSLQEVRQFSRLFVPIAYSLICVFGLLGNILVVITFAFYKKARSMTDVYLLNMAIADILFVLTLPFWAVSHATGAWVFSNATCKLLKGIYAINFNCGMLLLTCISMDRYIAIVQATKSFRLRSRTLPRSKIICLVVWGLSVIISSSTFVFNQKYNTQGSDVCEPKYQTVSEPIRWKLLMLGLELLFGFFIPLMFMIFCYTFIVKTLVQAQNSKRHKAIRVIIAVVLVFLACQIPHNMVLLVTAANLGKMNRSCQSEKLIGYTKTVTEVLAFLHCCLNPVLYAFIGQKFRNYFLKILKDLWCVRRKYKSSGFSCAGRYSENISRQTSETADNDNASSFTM
# Assay: FLIPR assay (inhibition of CCL20-induced calcium signal)
# Assay type: cell-based
# Settings: FLIPR IC50 (nM), HEK-293 cells expressing human CCR6; mean values where determined several times
# Procedure, shortened: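 Dye-loaded HEK-293 cells expressing human CCR6 were preincubated with compound for 30 min at room temperature in the dark, then challenged with 10 nM CCL20 (final). Fluorescence was tracked on FLIPR, and baseline-subtracted peak emission over base after agonist addition gave inhibition dose-response curves for IC50.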
row,Compound,IC50 [nM]
1,CC(C)c1ccc([C@](O)(c2cncc(N3C4CCC3CC4)c2)C2(C)CN(C)C2)cc1 [Example 177],284
2,CCc1ccc([C@](O)(c2cncc(N3CC4CC(C3)O4)c2)C2(C)CN(C)C2)cc1 [Example 243],211

# Same assay, conditions: HEK-293 cells expressing human CCR6; mean values where determined several times; read-out: FLIPR IC50
row,Compound,IC50 [nM]
1,CC(C)c1ccc([C@](O)(c2cncc(N3CC[C@H](CO)C3)c2)C2(C)CN(C)C2)cc1 [Example 170],133
2,CC(C)c1ccc([C@](O)(c2cncc(N3CCC(O)(C4CC4)C3)c2)C2(C)CN(C)C2)cc1 (stereo partly shown) [Example 173],77.9
3,CC(C)c1ccc([C@](O)(c2cncc(N3CCC(O)CC3)c2)C2(C)CN(C)C2)cc1 [Example 181],295
4,CC(C)c1ccc([C@](O)(c2cncc(N3CCCC(O)C3)c2)C2(C)CN(C)C2)cc1 (stereo partly shown) [Example 182],86.5
5,"CC(C)c1ccc([C@](O)(c2cncc(N(C)CCO)c2)C2(C)CN(C)C2)cc1 [Example 191, 2-({5-[(R)-(1,3-Dimethyl-azetidin-3-yl)-hydroxy-(4-isopropyl-phenyl)-methyl]-pyridin-3-yl}-methyl-amino)-ethanol]",317
6,CC(C)c1ccc([C@](O)(c2cncc(N3CC(C(C)C)OC3=O)c2)C2(C)CN(C)C2)cc1 (stereo partly shown) [Example 196],67.6
7,CC(C)c1ccc([C@](O)(c2cncc(N3CC4(CC4)OC3=O)c2)C2(C)CN(C)C2)cc1 [Example 197],106
8,CC(C)c1ccc([C@](O)(c2cncc(N3CC4(CCCC4)OC3=O)c2)C2(C)CN(C)C2)cc1 [Example 198],70.8
9,CC(C)c1ccc([C@](O)(c2cncc(N3CC(C4CCOCC4)OC3=O)c2)C2(C)CN(C)C2)cc1 (stereo partly shown) [Example 199],487
10,CC(C)c1ccc([C@](O)(c2cncc(N3CC(C)(C)OC3=O)c2)C2(C)CN(C)C2)cc1 [Example 200],407
11,CC(C)c1ccc([C@](O)(c2cncc(N3CC4(CCC(F)(F)CC4)OC3=O)c2)C2(C)CN(C)C2)cc1 [Example 201],159
12,CC(C)c1ccc([C@](O)(c2cncc(N3CC4(CC(C5CC5)C4)OC3=O)c2)C2(C)CN(C)C2)cc1 (stereo partly shown) [Example 203],64.9
13,CC(C)c1ccc([C@](O)(c2cncc(N3CC(C)(C)CC3=O)c2)C2(C)CN(C)C2)cc1 [Example 209],205
14,CC(C)c1ccc([C@](O)(c2cncc(N3CCC4(CCC4)C3=O)c2)C2(C)CN(C)C2)cc1 [Example 212],70.8
15,CC(C)c1ccc([C@](O)(c2cncc(N3CC4(CCOCC4)CC3=O)c2)C2(C)CN(C)C2)cc1 [Example 213],459
16,CC(C)c1ccc([C@](O)(c2cncc(N3CCC(C4CCOCC4)C3=O)c2)C2(C)CN(C)C2)cc1 (stereo partly shown) [Example 214],184
17,CC(C)c1ccc([C@](O)(c2cncc(N3CCC4(CCOCC4)C3=O)c2)C2(C)CN(C)C2)cc1 [Example 216],476
18,CC(C)c1ccc([C@](O)(c2cncc(N3CC(C(F)(F)F)CC3=O)c2)C2(C)CN(C)C2)cc1 (stereo partly shown) [Example 219],135
19,COCCC1CCN(c2cncc([C@@](O)(c3ccc(C(C)C)cc3)C3(C)CN(C)C3)c2)C1=O (stereo partly shown) [Example 220],214
20,COCCC1CC(=O)N(c2cncc([C@@](O)(c3ccc(C(C)C)cc3)C3(C)CN(C)C3)c2)C1 (stereo partly shown) [Example 221],350
21,"CC(C)c1ccc([C@](O)(c2cnnc(N3CCCC3=O)c2)C2(C)CN(C)C2)cc1 [Example 222, 1-{5-[(R)-(1,3-Dimethyl-azetidin-3-yl)-hydroxy-(4-isopropyl-phenyl)-methyl]-pyridazin-3-yl}-pyrrolidin-2-one]",164
22,CC(C)c1ccc([C@](O)(c2cncc(N3C[C@@H]4C[C@H]3CO4)c2)C2(C)CN(C)C2)cc1 [Example 234],123
23,COC[C@H]1CN(c2cncc([C@@](O)(c3ccc(C(C)C)cc3)C3(C)CN(C)C3)c2)CCO1 [Example 236],210
24,COC[C@@H]1CN(c2cncc([C@@](O)(c3ccc(C(C)C)cc3)C3(C)CN(C)C3)c2)CCO1 [Example 237],217
25,CC(C)c1ccc([C@](O)(c2cncc(N3C[C@H]4C[C@@H]3CO4)c2)C2(C)CN(C)C2)cc1 [Example 239],283
26,CC(C)c1ccc([C@](O)(c2cncc(N3C[C@H]4CC[C@@H](C3)O4)c2)C2(C)CN(C)C2)cc1 [Example 240],82.9
27,CN1CC(C)([C@](O)(c2ccc(C3(C(F)(F)F)CC3)cc2)c2cncc(N3C[C@@H]4C[C@H]3CO4)c2)C1 [Example 241],128

# Now from value to compound:
row,IC50 [nM],Compound
1,39.2,CC(C)c1ccc([C@](O)(c2cncc(N3CCCCC3)c2)C2(C)CN(C)C2)cc1 [Example 176]
2,47.5,CC(C)c1ccc([C@](O)(c2cncc(N3CCC[C@@H]3C)c2)C2(C)CN(C)C2)cc1 [Example 178]
3,64.5,CC(C)c1ccc([C@](O)(c2cncc(N3CCC(O)(C(F)(F)F)C3)c2)C2(C)CN(C)C2)cc1 (stereo partly shown) [Example 179]
4,55.7,CC(C)c1ccc([C@](O)(c2cncc(N3CCC(F)(F)C3)c2)C2(C)CN(C)C2)cc1 [Example 180]
5,31.7,CC(C)c1ccc([C@](O)(c2cncc(N(C)CCOCc3ccccc3)c2)C2(C)CN(C)C2)cc1 [Example 183]
6,16.5,CN1CC(C)([C@](O)(c2ccc(C3(C)CC3)cc2)c2cncc(N3CCCC3)c2)C1 [Example 184]
7,27.9,CN1CC(C)([C@](O)(c2ccc(C3(C(F)(F)F)CC3)cc2)c2cncc(N3C[C@@H](F)[C@@H](F)C3)c2)C1 [Example 185]
8,43.5,CN1CC(C)([C@](O)(c2ccc(C3(C(F)(F)F)CC3)cc2)c2cncc(N3CC[C@H](C(C)(C)O)C3)c2)C1 [Example 186]
9,15.8,CN1CC(C)([C@](O)(c2ccc(C3(C(F)(F)F)CC3)cc2)c2cncc(N3CCCC3)c2)C1 [Example 187]
10,23.4,CN1CC(C)([C@](O)(c2ccc(C(C)(C)C)cc2)c2cncc(N3CCCCC3)c2)C1 [Example 188]
11,38,"CC(C)c1ccc([C@](O)(c2cncc(-c3noc(C4CCN(S(=O)(=O)C5CC5)CC4)n3)c2)C2(C)CN(C)C2)cc1 [Example 190, (R)-{5-[5-(1-Cyclopropanesulfonyl-piperidin-4-yl)-[1,2,4]oxadiazol-3-yl]-pyridin-3-yl}-(1,3-dimethyl-azetidin-3-yl)-(4-isopropyl-phenyl)-methanol]"
12,20.5,CC(C)c1ccc([C@](O)(c2cncc(N3CC(c4ccccc4)OC3=O)c2)C2(C)CN(C)C2)cc1 (stereo partly shown) [Example 194]
13,29.3,CC(C)c1ccc([C@](O)(c2cncc(N3CC(Cc4ccccc4)OC3=O)c2)C2(C)CN(C)C2)cc1 (stereo partly shown) [Example 195]
14,29.9,CC(C)c1ccc([C@](O)(c2cncc(N3CC4(CC5(CCC5)C4)OC3=O)c2)C2(C)CN(C)C2)cc1 [Example 202]
15,48.2,CC(C)c1ccc([C@](O)(c2cncc(N3CC4(CC(C)(C)C4)OC3=O)c2)C2(C)CN(C)C2)cc1 [Example 204]
16,26.9,CC(C)c1ccc([C@](O)(c2cncc(N3CC(c4ccccc4)CC3=O)c2)C2(C)CN(C)C2)cc1 (stereo partly shown) [Example 205]

row,IC50 [nM],Compound
1,38.4,CC(C)c1ccc([C@](O)(c2cncc(N3CCC(C(C)C)C3=O)c2)C2(C)CN(C)C2)cc1 (stereo partly shown) [Example 208]
2,50.1,CC(C)c1ccc([C@](O)(c2cncc(N3CC4(CCCC4)CC3=O)c2)C2(C)CN(C)C2)cc1 [Example 211]
3,50.9,CC(C)c1ccc([C@](O)(c2cncc(N3CCC4(CCCCC4)C3=O)c2)C2(C)CN(C)C2)cc1 [Example 215]
4,43.3,CC(C)C[C@H]1CC(=O)N(c2cncc([C@@](O)(c3ccc(C(C)C)cc3)C3(C)CN(C)C3)c2)C1 [Example 217]
5,60.4,CC(C)c1ccc([C@](O)(c2cncc(N3CC(C4CC4)CC3=O)c2)C2(C)CN(C)C2)cc1 (stereo partly shown) [Example 218]
6,29,"CC(C)c1ccc(C(O)(c2cncc(N3CC[C@H](C(C)C)C3)c2)C2(C)CN(C)C2)cc1 (stereo partly drawn) [Example 223, (1,3-Dimethyl-azetidin-3-yl)-(4-isopropyl-phenyl)-[5-((R)-3-isopropyl-pyrrolidin-1-yl)-pyridin-3-yl]-methanol]"
7,48.5,CC(C)c1ccc([C@](O)(c2cncc(N3C[C@@H](C)O[C@@H](C)C3)c2)C2(C)CN(C)C2)cc1 [Example 224]
8,44.6,CC(C)c1ccc([C@](O)(c2cncc(N3C[C@H](C)O[C@@H](C)C3)c2)C2(C)CN(C)C2)cc1 [Example 228]
9,59.1,CC(C)c1ccc([C@](O)(c2cncc(N3C[C@@H](C)O[C@H](C)C3)c2)C2(C)CN(C)C2)cc1 [Example 229]
10,36.7,Cc1noc(C2CCN(c3cncc([C@@](O)(c4ccc(C(C)C)cc4)C4(C)CN(C)C4)c3)C2)n1 (stereo partly shown) [Example 230]
11,14.9,Cc1csc(C2CCN(c3cncc([C@@](O)(c4ccc(C(C)C)cc4)C4(C)CN(C)C4)c3)C2)n1 (stereo partly shown) [Example 231]
12,46.7,CC(C)c1ccc([C@](O)(c2cncc(N3CCC(c4ccccc4)C3)c2)C2(C)CN(C)C2)cc1 (stereo partly shown) [Example 232]
13,29.7,CC(C)c1ccc([C@](O)(c2cncc(N3CCC(C)(C)C3)c2)C2(C)CN(C)C2)cc1 [Example 233]
14,23.4,CC(C)c1ccc([C@](O)(c2cncc(N3CC(F)(F)OC(F)(F)C3)c2)C2(C)CN(C)C2)cc1 [Example 235]
15,22.4,CC(C)c1ccc([C@](O)(c2cncc(N3CCC(C(F)(F)F)C3)c2)C2(C)CN(C)C2)cc1 (stereo partly shown) [Example 238]
16,22.1,CCc1ccc([C@](O)(c2cncc(N3CCCC3)c2)C2(C)CN(C)C2)cc1 [Example 242]
